The results in this text go back to patent US20220324835A1 (Nurix Therapeutics, Inc., priority 2018, published 2022).

Test [1] deals with T1, Cbl-b (Homo sapiens, UniProt Q13191). The test is described as follows: Cbl-b activity assay (Cbl-b inhibition assay), TR-FRET of Cbl-b interaction with UbcH5B-Ub. The test is classed as biochemical. Conditions: assay buffer with 100 mM NaCl, 60 nM Src kinase; read-out: Cbl-b activity IC50. The method in brief: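 UbcH5B (C85K) conjugated to N-terminally Bodipy-Fluorescein-labeled ubiquitin served as the fluorescent partner. After compound preincubation, Src kinase (60 nM) with 1 mM ATP and 5 mM MgCl2 (final) was added for 1.5 h, followed by a further 1 h incubation. Some values were obtained with 50 mM NaCl and 30 nM Src.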
Background: In TR-FRET formats the signal depends on donor and acceptor labels being close together.

Test [2] concerns the target Cbl-b (residues 36-427) (Homo sapiens, UniProt Q13191). The test is described as follows: Cbl-b binding assay (SPR, Biacore T200). Conditions: 20° C., 1:1 binding model. The method in brief: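 Steps: capture protein on NeutrAvidin surface; inject compound dilutions (8 or 10 points from 100 or 50 μM) 50 s; allow 90-180 s dissociation; regenerate 20 s with 0.3 M NaCl. Runs at 20° C in HEPES pH 7.5/100 mM NaCl/2% DMSO; 1:1 fitting.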

For test [3], the system named is T-cell. The test is described as follows: IL-2 secretion from T-cells stimulated with anti-CD3 antibody alone (Biological Example 2). The test is classed as cell-based. Conditions: primary human total T-cells, read-out: IL-2 secretion, Anti-CD3 stimulation, fold change over baseline; for fold induction at 1 µM: 1 μM compound; for fold induction at 8 µM: 8 μM compound.

Test [4] deals with T-cell. Nature of the test: CD25 cell surface staining on T-cells stimulated with anti-CD3 antibody alone (Biological Example 2). The test is classed as cell-based. As to conditions: primary human total T-cells, baseline = anti-CD3/anti-CD28 stimulated cells without inhibitor, read-out: CD25 staining, Anti-CD3 stimulation, fold change over baseline; for fold induction at 1 µM: 1 μM compound; for fold induction at 8 µM: 8 μM compound.

In test [5] the test system is T-cell. The test is described as follows: CD25 cell surface staining on T-cells co-stimulated with anti-CD3 and anti-CD28 antibody (Biological Example 2). The test is classed as cell-based, human. As to conditions: Homo sapiens, T-cell, primary human total T-cells, baseline = anti-CD3/anti-CD28 stimulated cells without inhibitor, read-out: CD25 staining, Anti-CD3/Anti-CD28 stimulation, fold change over baseline; for fold induction at 0.3 µM: 0.3 μM compound; for fold induction at 1 µM: 1 μM compound; for fold induction at 4 µM: 4 μM compound. The method in brief:
(§1)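 T-cells were stimulated with anti-CD3 antibody alone or with anti-CD28 antibody, in the presence or absence of Cbl-b inhibitor. IL-2 secretion or CD25 surface staining was measured, and values expressed as fold over the uninhibited baseline […].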

Test [6] deals with T1, Cbl-b. Nature of the test: Cbl-b inhibition assay (Cbl-b activity assay, FRET, Biological Example 1; 100 mM NaCl, 60 nM Src kinase). The test is classed as biochemical. Conditions: upper bound stated in text lists; read-out: IC50 values in the Cbl-b inhibition assay of Biological Example 1. In a few lines:
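Inhibition is read as loss of FRET signal. The signal arises when Src-phosphorylated, N-terminal biotinylated Avi-Cbl-b (captured by streptavidin-terbium) binds UbcH5B carrying covalently linked Bodipy-Fluorescein-tagged ubiquitin.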

Test [7] relates to T-cell. The test is described as follows: IL-2 secretion from T-cells co-stimulated with anti-CD3 and anti-CD28 antibody (Biological Example 2). Type of test: cell-based, human. As to conditions: Homo sapiens, T-cell, primary human total T-cells, baseline = anti-CD3/anti-CD28 stimulated cells without inhibitor, read-out: IL-2 secretion, Anti-CD3/Anti-CD28 stimulation, fold change over baseline; for fold induction at 0.3 µM: 0.3 μM compound; for fold induction at 1 µM: 1 μM compound; for fold induction at 4 µM: 4 μM compound. The method in brief:
as §1

Chain of Cbl-b (residues 36-427) (Q13191 36-427): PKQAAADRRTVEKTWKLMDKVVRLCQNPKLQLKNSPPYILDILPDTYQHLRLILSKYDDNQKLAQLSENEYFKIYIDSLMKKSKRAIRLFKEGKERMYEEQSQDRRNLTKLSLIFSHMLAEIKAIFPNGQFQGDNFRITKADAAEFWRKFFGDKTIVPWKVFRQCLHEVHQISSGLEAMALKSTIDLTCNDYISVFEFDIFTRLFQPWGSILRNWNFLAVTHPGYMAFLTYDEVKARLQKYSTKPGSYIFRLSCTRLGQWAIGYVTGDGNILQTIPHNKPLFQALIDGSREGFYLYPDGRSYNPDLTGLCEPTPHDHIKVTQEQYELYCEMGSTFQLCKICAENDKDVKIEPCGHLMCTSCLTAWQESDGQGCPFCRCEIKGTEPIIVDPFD
T1 sequence (Q13191 36-427): as above

Consider `C[C@H](Cc1nncn1C)c1cccc(N2Cc3c(ccnc3C(F)(F)F)C2=O)c1` [Compound 371, (R)-2-(3-(1-(4-methyl-4H-1,2,4-triazol-3-yl)propan-2-yl)phenyl)-4-(trifluoromethyl)-2,3-dihydro-1H-pyrrolo[3,4-c]pyridin-1-one], for which the IC50 in test [1] was 100 to 300 nM; in test [6], not above 300 nM. This compound displayed a Kd in test [2] of 301 to 1000 nM. The fold induction at 1 µM is 0.101 to 0.15 in test [3], 0.801 to 1 in test [4], 1.01 to 1.3 in test [5] and 2.51 to 5 in test [7]. Besides, the figures for the fold induction at 8 µM in test [3] and in test [4] were more than 0.201 and more than 1, respectively. Also, the fold induction at 0.3 µM in test [5] was in the range of 1.01 to 1.3; in test [7], 1.01 to 2.5. Further, the fold induction at 4 µM lay in the range of 1.01 to 1.3 in test [5] and 5 to 7.5 in test [7].

Consider `C[C@H](Cc1nncn1C)c1cccc(N2Cc3c(cc(C(C)(C)O)cc3C(F)(F)F)C2=O)c1` [Compound 374, (R)-6-(2-hydroxypropan-2-yl)-2-(3-(1-(4-methyl-4H-1,2,4-triazol-3-yl)propan-2-yl)phenyl)-4-(trifluoromethyl)isoindolin-1-one], for which the concentration for half-maximal inhibition (IC50) in test [1] is less than 100 nM; in test [6] it was not above 100 nM. Moreover, the Kd in test [2] is 100 to 300 nM. Also, the fold induction at 1 µM in test [3] lay in the range of 0.151 to 0.2; in test [4], 0.801 to 1; in test [5] it was 1.31 to 1.5; in test [7], 5 to 7.5. Also, the fold induction at 8 µM in test [3] is more than 0.201; in test [4] it was more than 1. The results for the fold induction at 0.3 µM in test [5] and in test [7] were 1.01 to 1.3 and 2.51 to 5, respectively. Also, the fold induction at 4 µM is 1.31 to 1.5 in test [5] and more than 7.5 in test [7].

For `C[C@@H]1[C@@H](c2nncn2C)[C@H]1c1cccc(N2Cc3c(cccc3C(F)(F)F)C2=O)c1` [Compound 375, 2-[3-[(1 S,2S,3R)-2-methyl-3-(4-methyl-4H-1,2,4-triazol-3-yl)cyclopropyl]phenyl]-4-(trifluoromethyl)-2,3-dihydro-1H-isoindol-1-one], the IC50 in test [1] was less than 100 nM; in test [6], not above 100 nM. Also, the dissociation constant Kd in test [2] is less than 100 nM. Besides, the fold induction at 1 µM was more than 0.201 in test [3], more than 1 in test [4], 1.31 to 1.5 in test [5] and 5 to 7.5 in test [7]. The fold induction at 8 µM in test [3] is more than 0.201; in test [4], more than 1. The values for the fold induction at 0.3 µM in test [5] and in test [7] were 1.01 to 1.3 and 2.51 to 5, respectively. The fold induction at 4 µM in test [5] was 1.31 to 1.5; in test [7], more than 7.5.

Take `Cc1c[nH]nc1-c1cc2c(c(C(F)(F)F)c1)CN(c1cccc([C@H](C)Cc3nncn3C)c1)C2=O` [Compound 377, 6-(4-methyl-1H-pyrazol-3-yl)-2-{3-[(2R)-1-(4-methyl-4H-1,2,4-triazol-3-yl)propan-2-yl]phenyl}-4-(trifluoromethyl)-2,3-dihydro-1H-isoindol-1-one]: the IC50 was less than 100 nM in test [1] and not above 100 nM in test [6]. The compound further gave a Kd in test [2] of less than 100 nM. Besides, the fold induction at 1 µM was more than 0.201 in test [3], 0.601 to 0.8 in test [4], 1.51 to 1.75 in test [5] and 5 to 7.5 in test [7]. Further, the results for the fold induction at 8 µM in test [3] and in test [4] were more than 0.201 and 0.801 to 1, respectively. Moreover, the values for the fold induction at 0.3 µM in test [5] and in test [7] were 1.31 to 1.5 and 1.01 to 2.5, respectively. For the same compound, the fold induction at 4 µM in test [5] was more than 1.76; in test [7], more than 7.5.

In the case of `Cc1n[nH]c(C)c1-c1cc2c(c(C(F)(F)F)c1)CN(c1cccc([C@H](C)Cc3nncn3C)c1)C2=O` [Compound 378, 6-(3,5-dimethyl-1H-pyrazol-4-yl)-2-{3-[(2R)-1-(4-methyl-4H-1,2,4-triazol-3-yl)propan-2-yl]phenyl}-4-(trifluoromethyl)-2,3-dihydro-1H-isoindol-1-one], the IC50 in test [1] is less than 100 nM; in test [6], not above 100 nM. This compound displayed a Kd in test [2] of less than 100 nM. Moreover, the fold induction at 1 µM was more than 0.201 in test [3], more than 1 in test [4], 1.51 to 1.75 in test [5] and more than 7.5 in test [7]. For the same compound, the fold induction at 8 µM was more than 0.201 in test [3] and more than 1 in test [4]. Further, the fold induction at 0.3 µM in test [5] lay in the range of 1.31 to 1.5; in test [7], 2.51 to 5. Besides, the results for the fold induction at 4 µM in test [5] and in test [7] were more than 1.76 and more than 7.5, respectively.

For `C[C@H](Cc1nncn1C)c1cccc(N2Cc3c(cc(N[C@H]4CCNC4)cc3C(F)(F)F)C2=O)c1` [Compound 379, 2-(3-((R)-1-(4-methyl-4H-1,2,4-triazol-3-yl)propan-2-yl)phenyl)-6-(((S)-pyrrolidin-3-yl)amino)-4-(trifluoromethyl)isoindolin-1-one], the half-inhibitory concentration (IC50) is less than 100 nM in test [1] and not above 100 nM in test [6]. Further, in test [2], the dissociation constant Kd is less than 100 nM. Besides, the fold induction at 1 µM in test [3] is 0.101 to 0.15; in test [4] it was 0.801 to 1; in test [5], 1.01 to 1.3; in test [7] it was 2.51 to 5. The results for the fold induction at 8 µM in test [3] and in test [4] were 0.151 to 0.2 and more than 1, respectively. Also, the figures for the fold induction at 0.3 µM in test [5] and in test [7] were 1.01 to 1.3 and 1.01 to 2.5, respectively. The fold induction at 4 µM in test [5] is 1.01 to 1.3; in test [7] it was 2.51 to 5.

With `C[C@H](Cc1nncn1C)c1cccc(N2Cc3c(cc(N(C)[C@H]4CCNC4)cc3C(F)(F)F)C2=O)c1` [Compound 380, 6-(methyl((S)-pyrrolidin-3-yl)amino)-2-(3-((R)-1-(4-methyl-4H-1,2,4-triazol-3-yl)propan-2-yl)phenyl)-4-(trifluoromethyl)isoindolin-1-one], the results for the IC50 in test [1] and in test [6] were less than 100 nM and not above 100 nM, respectively. The Kd in test [2] is less than 100 nM. Besides, the fold induction at 1 µM is 0.151 to 0.2 in test [3], 0.801 to 1 in test [4], 1.31 to 1.5 in test [5] and 2.51 to 5 in test [7]. The fold induction at 8 µM in test [3] is more than 0.201; in test [4] it was more than 1. In addition, the results for the fold induction at 0.3 µM in test [5] and in test [7] were 1.31 to 1.5 and 2.51 to 5, respectively. Moreover, the fold induction at 4 µM in test [5] was 1.51 to 1.75; in test [7] it was more than 7.5.

As to `Cc1[nH]ncc1-c1cc2c(c(C(F)(F)F)c1)CN(c1cccc([C@H](C)Cc3nncn3C)c1)C2=O` [Compound 381, 6-(5-methyl-1H-pyrazol-4-yl)-2-{3-[(2R)-1-(4-methyl-4H-1,2,4-triazol-3-yl)propan-2-yl]phenyl}-4-(trifluoromethyl)-2,3-dihydro-1H-isoindol-1-one], the half-maximal inhibitory concentration (IC50) was less than 100 nM in test [1] and not above 100 nM in test [6]. Further, in test [2], the dissociation constant Kd is less than 100 nM. In addition, the fold induction at 1 µM lay within 0.151 to 0.2 in test [3], 0.801 to 1 in test [4], 1.51 to 1.75 in test [5] and 5 to 7.5 in test [7]. Also, the figures for the fold induction at 8 µM in test [3] and in test [4] were more than 0.201 and more than 1, respectively. The fold induction at 0.3 µM in test [5] fell in the range of 1.31 to 1.5; in test [7], 2.51 to 5. Moreover, the fold induction at 4 µM in test [5] is 1.51 to 1.75; in test [7] it was more than 7.5.

A word on the IC50: it is the point on the concentration scale where inhibition reaches its midpoint. The Kd is the concentration at which binding is half-saturated. Read a low Kd as tighter binding.
